Consider 74 molecules from PubChem BioAssay AID179 (DTP/NCI, 2004).

Activity calls are given as the source filed them.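 Rule for the calls: active = compounds giving half or more protection of infected cells from virus-caused growth loss, again on retest; inactive = the rest.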 Where a SMILES comes first, the peptide text is derived from it. [ ]: non-standard residue; d: D form. The star is where a group is joined. Phe(4-NO2) = N[CH](Cc1ccc([N+](=O)[O-])cc1)C(=O)O; Boc = CC(C)(C)OC(=O)*; OtBu = CC(C)(C)O* A value given as a limit tells only on which side of the number the result lay.

The assay relates to CEM cells HIV-1 protection, formazan growth assay. The assay can be described thus: NCI AIDS Antiviral Assay. To be noted: for IC50: measured here: growth of uninfected CEM cells. The method, boiled down: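 Category rules: moderately active means at least 50% protection on retest, and confirmed active means 100% protection reproducibly. The underlying data came from a formazan growth assay in HIV-1-infected CEM cells.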

As a reminder, the EC50 is the concentration needed to bring the measured effect to its halfway point. The IC50 is the midpoint of a concentration-inhibition curve. The low end stands for greater potency in that assay, the high end for weaker potency in that assay. `CCOC(=O)c1nc(SC)sc1NC(=O)c1ccc([N+](=O)[O-])cc1`: the EC50 is over 200 µM and the IC50 was over 200 µM. With `C/C=C(/CCO)[Si](C)(C)C`, the outcome was inactive. As for `COC(=O)C(Cc1ccc([N+](=O)[O-])cc1)NC(=O)C(CC(=O)OC(C)(C)C)NC(=O)OC(C)(C)C` (stereo unspecified) (Boc-Asp(OtBu)-[Phe(4-NO2)]-OMe; configuration not given here), the EC50 was over 200 µM and the concentration for half-maximal inhibition (IC50) stood at 93.3 µM. As to `COc1ccc2c(c1OC)C(=O)c1cnccc1C2=O`, the EC50 was 60.3 µM and the IC50 came out at 132 µM. As to `Cc1ccc(NC(=O)C(=O)C2C(=O)NC(=O)NC2=O)c(C)c1`, the EC50 is over 832 µM and the IC50 was over 832 µM. As for `CC(=O)Nc1ccc(C(=O)N2N=C(C)/C(=C/c3ccccc3O)C2=O)cc1`, the EC50 was over 51.3 µM and the IC50 was over 51.3 µM.

Regarding `CCN(CC)CCCNc1c2cc(OC)ccc2nc2cccc([N+](=O)[O-])c12`, the EC50 was over 2 µM and the IC50 was determined as 0.0407 µM.

On to `CCOC(=O)C(/C=N/C(=S)Nc1ccc(S(=O)(=O)Nc2ccccn2)cc1)=C(/O)c1ccccc1`, for which the EC50 was over 200 µM and the IC50 was determined as 135 µM. In the case of `COc1ccc(NS(=O)(=O)c2ccc3ncn(NS(=O)(=O)c4ccc(I)cc4)c(=O)c3c2)cc1`, the outcome was inactive. Take `Oc1cc2c(cc1O)-c1[nH]ncc1CC2`: the EC50 is over 67.6 µM and the IC50 worked out at 33.1 µM.

Turning to `C[C@]12CCC3c4ccc(OS(=O)(=O)O)cc4CC[C@H]3C1CC[C@@H]2O` (stereo partly specified), the result was inactive. As for `CC(=O)NC1C(CO)O[C@@H]2OC(C)(C)O[C@H]12` (stereo partly specified), the EC50 is over 200 µM and the IC50 was over 200 µM. On to `O=C1SC(=NC2CCCCC2)N(C2CCCCC2)/C1=C1\C(=O)SC(=NC2CCCCC2)N1C1CCCCC1`, for which the EC50 is over 26.9 µM and the IC50 was over 26.9 µM.

As for `Cc1ncc2c(n1)NC(=O)NC2`, the EC50 was over 83.2 µM and the IC50 was over 83.2 µM. With `CC(=O)c1ccccc1NC(=O)C(=O)C(C(=O)c1ccccc1-c1ccccc1)C1OC(=O)c2ccccc21` (stereo unspecified), the EC50 is over 50.1 µM and the 50% inhibitory concentration (IC50) turned out to be 26.9 µM. As for `O=C1CC2CC(=O)CC2(C2CC=CC2)C1` (stereo unspecified), the EC50 was over 245 µM and the 50% inhibitory concentration (IC50) is over 245 µM. With `Cc1ccc(-c2n[nH]c(=O)n2N2C(=O)c3ccccc3C2=O)cc1`, the EC50 was over 200 µM and the IC50 was over 200 µM. Consider `CC(C)=CCCC1(C)C=Cc2c(c(C)cc3c2[nH]c2ccccc23)O1` (stereo unspecified), for which the EC50 is over 21.9 µM and the IC50 was determined as 12 µM.

As for `CCNc1nnc(-c2ccccc2Nc2ccccc2-c2nnc(NCC)s2)s1`, the EC50 was over 200 µM and the IC50 turned out to be 16.2 µM. On to `c1ccc(CSC(SCc2ccccc2)c2cccc3ccccc23)cc1`, for which the EC50 is 5.89 µM and the IC50 was over 200 µM.

`CCP(=O)(CC)C(Cl)(Cl)C(O)C(Cl)(Cl)Cl` (stereo unspecified): the EC50 was over 200 µM and the IC50 was over 200 µM.

Regarding `C/C(=N\N)C(CN(C)C)C(c1ccccc1)c1c(O)c2ccccc2oc1=O` (stereo unspecified), the EC50 is over 87.1 µM and the IC50 was over 87.1 µM. Consider `O=C1c2ccccc2N2OC3(N4CCCC4)CCCCC3C12c1ccccc1` (stereo unspecified), for which the EC50 was over 10 µM and the IC50 was over 10 µM. On to `CN(C)C(=NC#N)N(Cc1ccccc1)Cc1ccccc1`, for which the EC50 was over 200 µM and the IC50 was determined as 112 µM. Take `COC(=O)C1CC(F)(F)[C@H]1n1cnc2c(N)ncnc21` (stereo partly specified): the EC50 is over 240 µM and the IC50 is over 240 µM. In the case of `CCCCCCCCCCCCC(CCCCCCCCCCCC)OP(=O)(O)O`, the outcome was inactive. Consider `O=S(=O)(O)SCCNCCCCC1CCCCC1`, for which the EC50 was over 200 µM and the IC50 amounted to 10.2 µM. For `O=c1[nH]c2cccnc2c(=O)n1O`, the EC50 was over 200 µM and the IC50 is 69.2 µM. In the case of `O=c1[nH]c(=S)[nH]c2[nH]c(=S)[nH]c12`, the EC50 is over 200 µM and the IC50 was over 200 µM. Regarding `CC(=O)Nc1ccccc1NC1CC(C)N(c2ccccc2)N1C(C)=O` (stereo unspecified), the EC50 is over 200 µM and the IC50 is 32.4 µM. On to `Cn1ncc2c(=O)[nH]cnc21`, for which the EC50 was over 316 µM and the IC50 was over 316 µM. Consider `CC(C)C(=O)/C=C/c1c(Cl)cccc1Cl`, for which the outcome was inactive. Regarding `CC1CC2OC(=N)C1(C#N)C2(C#N)C#N` (stereo unspecified), the EC50 is over 200 µM and the IC50 is 10.5 µM. Turning to `COc1ccc(N2CCCSC2=S)cc1`, the EC50 is over 200 µM and the IC50 was over 200 µM.

As for `CCCCC1CC(c2ccc(Cl)cc2)=NO1` (stereo unspecified), the EC50 was over 21.9 µM and the IC50 is over 21.9 µM. Consider `Cc1oc2c(c1C)S(=O)(=O)C(C#N)C(c1ccccc1)N2` (stereo unspecified), for which the EC50 is over 200 µM and the IC50 came out at 126 µM. For `COc1ccc(S(=O)(=O)N/N=C/CN2C(=O)c3ccccc3C2=O)cc1OC` the same measures were over 64.6 µM and over 64.6 µM. In the case of `COC(=O)c1ncn(C2CCCCC2)c1O`, the EC50 was over 200 µM and the IC50 is over 200 µM. With `CCOC(=O)C(Cc1c[nH]c2ccc(N)cc12)(NC(C)=O)C(=O)OCC`, the EC50 was over 200 µM and the IC50 is over 200 µM. As to `N=C1SCc2c1sc1ccccc21`, the EC50 was over 56.2 µM and the half-maximal inhibitory concentration (IC50) amounted to 28.8 µM. The like results for `CO/C(=N\N=C\c1ccc(OC)c(OC)c1)c1ccncc1` were, in that order, over 437 µM and 295 µM. For `CC1=CC(=O)/C(=C/n2c(=S)[nH]c3ccc([N+](=O)[O-])cc32)C(=O)O1`, the EC50 is over 1000 µM and the IC50 is 178 µM. For `CON[N+]([O-])=NC(C)C`, the EC50 was 195 µM and the 50% inhibitory concentration (IC50) was over 200 µM. `CCOC(=O)C1=C(C)N(NC(N)=O)C(C)(O)C12CCOC2=O` (stereo unspecified): the EC50 is over 794 µM and the IC50 was over 794 µM. `O=[N+]([O-])/C(C(Cl)=C(Cl)Cl)=C1/OCCS1`: the EC50 was over 200 µM and the IC50 was 107 µM. As to `NC(=O)N1c2ccccc2C=Cc2ccccc21`, the EC50 is over 200 µM and the IC50 is over 200 µM. Consider `COc1ccc2c(-c3ccc(OCCN(C)C)cc3)c(Oc3ccc(Cl)cc3)c(=O)oc2c1`, for which the EC50 was over 200 µM and the half-maximal inhibitory concentration (IC50) was 5.89 µM. The like results for `CC1CCN(CCCCCNC(=O)C(c2ccccc2)C2CCCCC2)CC(C)(C)C1` (stereo unspecified) were, in that order, over 100 µM and 41.7 µM. On to `CCCc1ccc(NCc2cc(OC)c(OC)c(OC)c2)cc1`, for which the EC50 was over 74.1 µM and the IC50 was found to be 31.6 µM. Consider `COc1ccc(CCCCl)c(C2=NCCc3ccccc32)c1`, for which the EC50 was over 200 µM and the IC50 turned out to be 7.08 µM. As for `O=C1C=C(c2ccccc2)C(c2ccccc2)C1O` (stereo unspecified), the EC50 is over 200 µM and the IC50 is 135 µM. In the case of `CC(=O)Nc1ccc(N2C(=O)/C(=C\c3cccc(Oc4ccccc4)c3)SC2c2ccccc2)cc1` (stereo unspecified), the EC50 is over 200 µM and the IC50 amounted to 36.3 µM. As to `O=c1c(SCc2ccccc2)c(N2CCCCC2)cnn1-c1ccccc1`, the EC50 was over 69.2 µM and the IC50 is over 69.2 µM.

As to `CN=S(=O)(c1ccccc1)C1(C)CC(C)=C(C)CS1=O` (stereo unspecified), the EC50 is over 200 µM and the IC50 turned out to be 132 µM. The like results for `N=C1N(c2ccccc2)C(=O)C23CCCC2C13N1CCOCC1` (stereo unspecified) were, in that order, over 219 µM and over 219 µM. For the molecule `COc1ccc(C(=O)Sc2c(-c3ccccc3)c(=O)n(-c3ccccc3)c(=S)n2-c2ccccc2)cc1`, the EC50 was over 200 µM and the IC50 was 3.31 µM. As to `NCCNC(=O)CCC(CN(CC(=O)O)CC(=O)O)N(CC(=O)O)CC(=O)O` (stereo unspecified), the EC50 was over 63.1 µM and the IC50 was over 63.1 µM. Turning to `O=C(O)c1nn(-c2ccccc2)nc1-c1nn(-c2ccccc2)nc1C(=O)O`, the EC50 was over 200 µM and the 50% inhibitory concentration (IC50) was over 200 µM. As to `NC(N)=NS(=O)(=O)c1ccc(Nc2c3ccccc3nc3ccc(C(=O)Nc4ccc(S(N)(=O)=O)cc4)cc23)cc1`, the EC50 is over 200 µM and the IC50 is over 200 µM. With `CC(C)/C=N\N1C(N)=C(C#N)C(C#N)(C#N)C1C(C)C` (stereo unspecified), the EC50 was over 200 µM and the IC50 came out at 41.7 µM. In the case of `O=c1[nH]c(N2CCOCC2)nc2cc3ccccc3cc12`, the EC50 was over 155 µM and the IC50 is over 155 µM. Turning to `c1ccc(-c2cn3c(nc4ccccc43)c(-c3ccccc3)n2)cc1`, the EC50 is over 200 µM and the IC50 was determined as 132 µM. Turning to `CC1=C2CCCC2=C/C(=N/Nc2ccc([N+](=O)[O-])cc2[N+](=O)[O-])CC1`, the outcome was inactive.

`COc1cc(C2OCC3C(c4ccc(O)c(OC)c4)OCC23)ccc1O` (stereo unspecified): the outcome was inactive. Regarding `Nc1ncnc2c1ncn2C1CC(OC2CCCCO2)C(CO)O1` (stereo unspecified), the EC50 was over 200 µM and the IC50 is over 200 µM. As to `O=c1ncc2ccc([N+](=O)[O-])cc2[nH]1`, the EC50 is over 186 µM and the IC50 turned out to be 148 µM. Turning to `NC(=S)N/N=C\NN/C=N/NC(N)=S`, the EC50 is over 200 µM and the IC50 came to 102 µM. For `COc1ccc2c(c1)C13CCCC(C)(C(=O)NC1)C3CC2` (stereo unspecified) the same measures were over 200 µM and over 200 µM.

As for `COc1cc2c(c([N+](=O)[O-])c1)NC(=O)CC(C)S2` (stereo unspecified), the EC50 is 95.5 µM and the IC50 is 148 µM.

For `CC(C)C(Sc1nc(-c2ccccc2)c(-c2ccccc2)[nH]1)c1n[nH]c(=S)n1-c1ccccc1` (stereo unspecified), the EC50 is over 14.8 µM and the IC50 is 7.08 µM.

Regarding `Cc1cc(/C=C/c2cc[n+](C)c3ccccc23)c(O)c2ncccc12`, the EC50 was over 398 µM and the IC50 stood at 0.759 µM. Turning to `CCOc1ccc(-n2c(=O)n3c(Nc4ccc(Cl)cc4)nc4c(c(=O)n(C)c(=O)n4C)n3c2=O)cc1`, the EC50 is over 100 µM and the IC50 is 66.1 µM. For `COc1ccc(COCC[C@H](C)OC2OC(CO[Si](C)(C)C(C)(C)C)C(O)C(O)C2O)cc1` (stereo partly specified), the EC50 was over 200 µM and the IC50 stood at 16.2 µM. Consider `Cc1ccc(S(=O)(=O)N(/N=C(\N)Oc2ccc(Cl)cc2)C(=N)Oc2ccc(Cl)cc2)cc1`, for which the EC50 is over 100 µM and the IC50 was over 100 µM.
